Reference: patent US20220389003A1, “4-SUBSTITUTED INDOLE AND INDAZOLE SULFONAMIDO DERIVATIVES AS PARG INHIBITORS” (IDEAYA BIOSCIENCES, INC., priority 2019, published 2022)
Read-outs that look alike come from different tables or passages of the source.

Columns and labels:
PARG [1] = molecular target: T1, PARG (Homo sapiens, UniProt Q86W56); assay: Inhibition of PARG enzymatic assay (TR-FRET enzymatic IC50 assay); type: biochemical; parameters: purchased Peak Proteins; conditions: hPARG 250 pM, biotinylated-PARylated PARP substrate 30 nM
Experimental: PARG enzyme was incubated with compound or vehicle (DMSO) and the biotinylated-PARylated PARP substrate in a microtiter plate. After adding detection antibody and streptavidin-europium, and then incubating, the plate was read for fluorescence intensity. The low control (DMSO) with low fluorescence intensity represents no inhibition of enzymatic reaction while the high control (no enzyme) with high fluorescence intensity represents full inhibition of enzymatic reaction.
• PARG • hPARG: 250 pM, His-tagged, Peak Proteins, 0.96 mg/mL (8.58 μM) • Substrate: 30 nM • Reaction time: 70 minutes • Substrate: hPARP1, His- and TEV-tagged, Peak Proteins, 14 μM • Detection Antibody: anti-His monoclonal antibody-ULight, Perkin Elmer catalog #TRF0105-M • Streptavidin-Europium: Perkin Elmer catalog #AD0062 • Assay buffer: 50 mM Tris-HCl pH 7.4, 50 mM KCl, 3 mM EDTA, 0.4 mM EGTA, 1 mM DTT, 0.01% Tween 20, 0.01% BSA • Temperature: 23° C. • Total volume: 20 μL
• 0% inhibition control: DMSO • 100% inhibition control: No enzyme
• 1. Transfer 5 μL of 3× final concentration of test compounds or DMSO to the appropriate wells of a microtiter plate. • 2. Centrifuge the plate at 1000 rpm for 1 minute. • 3. Transfer 5 μL of 3× final concentration of enzyme in assay buffer or assay buffer alone to the appropriate wells. • 4. Centrifuge the plate at 1000 rpm for 1 minute. • 5. Incubate the plate at room temperature for 1 hour. • 6. Transfer 5 μL of 3× substrate in assay buffer to all the test wells. • 7. Centrifuge the plate at 1000 rpm for 1 minute. • 8. Incubate the plate at room temperature for 10 minutes. • 9. Transfer 5 μL of 3× mixture of detection antibody and streptavidin-europium in assay buffer to all the test wells. • 10. Centrifuge the plate at 1000 rpm for 1 minute. • 11. Incubate the plate at room temperature for 1 hour. • 12. Read the plate on a plate reader (e.g., Infinite M1000).

[2] = test system: HCC1806-XRCC1 KD (knock down) cells; assay: Cellular viability assay (Cell Titer-Glo); type: cell-based; conditions: HCC1806-shXRCC1 cells, 4 days of incubation, read-out: PARGi cell viability
Experimental: HCC1806-XRCC1 KD (knock down) cells were plated at 2000 cells/well in 96-well white plates with clear flat bottom. After 24 hours, the compounds of the disclosure were added starting at 30 μM for a 9-point dose response curve at 1:3 dilution. The compounds of the disclosure were added by Tecan digital dispenser excluding the outermost wells of the plate. All treatments were done in duplicates. After 4 days of incubation, 50 ul of Cell Titer-Glo (Promega) was added per well. After incubation with the reagent for 15 minutes, luminescence was read using a plate reader (TECAN). Average values of DMSO treated wells in a plate was calculated. All data points were normalized to that of the average DMSO value. The % of control for each sample compared to DMSO treated control samples. Curves are fit as % of control vs. log [compound concentration] using a 4 parameter inhibition model (Levenberg-Marquardt algorithm):
Fit=(A+((B−A)/(1+((C/x)^D))))

PARG [3] = molecular target: T1, PARG; assay: Inhibition of PARG cellular assay (PAR foci in HeLa cells after MMS); type: cell-based; parameters: endogenous in cells; host or cells: HeLa; conditions: compound 1 h then MMS 1 h
Experimental: The ability of the compounds disclosed herein to inhibit PARG was determined as described below. Briefly, after treating HeLa cells with the compounds of the disclosure for 1 h, followed by treatment with DNA alkylating agent methylmethanesulfonate (MMS) for an additional 1 h, the cells were fixed in 3.7% formaldehyde. The cells were permeabilized in 0.5% Triton-X100, blocked in 5% goat serum, and incubated with mouse monoclonal antibody against poly (ADP) ribose (PAR) polymer overnight at 4° C. The cells were washed and incubated with an Alexafluor 488-linked secondary antibody together with a nuclear stain (Hoechst 33342) for an hour at room temperature. After washing, images of the cells were captured and analyzed on a high content imaging microscope and software. Two measurement of PAR chain were quantified with the mean intensity over background of the nuclear foci (fluorescent signal at 488 nm range 0.3-2.0 μm foci) quantified as PAR foci (PAR Foci IC50). The cells with a PAR foci signal >1.3 was considered as positive (PAR % positive IC50), and the percentage positive cells are quantified.

T1 sequence (Q86W56 whole entry): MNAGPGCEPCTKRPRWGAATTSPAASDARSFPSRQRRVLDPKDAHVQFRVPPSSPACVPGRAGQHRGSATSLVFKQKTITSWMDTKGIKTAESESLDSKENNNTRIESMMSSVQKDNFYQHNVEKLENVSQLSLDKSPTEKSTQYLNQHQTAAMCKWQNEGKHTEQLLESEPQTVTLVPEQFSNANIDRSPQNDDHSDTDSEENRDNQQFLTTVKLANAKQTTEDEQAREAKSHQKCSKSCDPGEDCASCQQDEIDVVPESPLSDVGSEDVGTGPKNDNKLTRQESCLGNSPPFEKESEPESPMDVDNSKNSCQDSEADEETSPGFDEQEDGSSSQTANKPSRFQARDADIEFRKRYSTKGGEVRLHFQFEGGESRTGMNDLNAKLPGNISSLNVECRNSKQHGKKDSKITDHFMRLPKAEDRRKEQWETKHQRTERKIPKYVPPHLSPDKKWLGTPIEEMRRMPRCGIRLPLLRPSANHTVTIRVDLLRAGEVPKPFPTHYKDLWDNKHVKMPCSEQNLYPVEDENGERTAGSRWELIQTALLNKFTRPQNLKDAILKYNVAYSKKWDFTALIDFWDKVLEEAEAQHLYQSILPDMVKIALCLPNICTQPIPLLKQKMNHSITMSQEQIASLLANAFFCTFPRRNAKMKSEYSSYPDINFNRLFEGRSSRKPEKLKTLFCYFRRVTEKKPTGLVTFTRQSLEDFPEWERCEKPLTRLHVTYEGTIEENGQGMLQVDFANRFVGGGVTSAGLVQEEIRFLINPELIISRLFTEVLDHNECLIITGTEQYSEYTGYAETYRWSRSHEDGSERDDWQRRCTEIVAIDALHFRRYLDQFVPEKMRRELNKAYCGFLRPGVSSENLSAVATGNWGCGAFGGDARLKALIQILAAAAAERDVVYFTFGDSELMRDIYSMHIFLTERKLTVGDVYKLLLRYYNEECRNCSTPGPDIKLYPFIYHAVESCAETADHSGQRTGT

Compound | IC50 (PARG [1]) [µM] | IC50 ([2]; 96 h) [µM] | IC50 (PARG [3]) [µM] | IC50 [2] [µM]
COC(=O)N1CCN(c2cc(S(=O)(=O)NC3(C#N)CC3)cc3c2cnn3-c2nnc(C(F)F)s2)CC1 [Example 58, methyl 4-(1-[5-(difluoromethyl)(1,3,4-thiadiazol-2-yl)]-6-{[(cyanocyclopropyl)amino]sulfonyl}-1H-indazol-4-yl)piperazinecarboxylate] | ≤ 0.1 | 1 to 10 | – | –
CN1CCCN(c2cc(S(=O)(=O)NC3(C#N)CC3)cc3c2cnn3-c2nnc(C(F)F)s2)CC1 [Example 63, 1-[({1-[5-(difluoromethyl)(1,3,4-thiadiazol-2-yl)]-4-(4-methyl(1,4-diazaperhydroepinyl))-1H-indazol-6-yl}sulfonyl)amino]cyclopropanecarbonitrile] | ≤ 0.1 | 10 to 20 | – | –
Cn1cnnc1N1CCN(c2cc(S(=O)(=O)NC3(C#N)CC3)cc3c2cnn3-c2nnc(C(F)F)s2)CC1 [Example 36, 1-[({1-[5-(difluoromethyl)(1,3,4-thiadiazol-2-yl)]-4-[4-(4-methyl(1,2,4-triazol-3-yl))piperazinyl]-1H-indazol-6-yl}sulfonyl)amino]cyclopropanecarbonitrile] | ≤ 0.1 | 10 to 20 | – | –
CN(C)C(=O)c1ccc(-c2cc(S(=O)(=O)NC3(C#N)CC3)cc3c2cnn3-c2nnc(C(F)F)s2)cc1 [Example 3, [4-(1-[5-(difluoromethyl)(1,3,4-thiadiazol-2-yl)]-6-{[(cyanocyclopropyl)amino]sulfonyl}(1H-indazol-4-yl))phenyl]-N,N-dimethylcarboxamide] | 0.1 to 0.3 | 10 to 20 | – | –
CNC(=O)N1CCN(c2cc(S(=O)(=O)NC3(C#N)CC3)cc3c2cnn3-c2nnc(C(F)F)s2)CC1 [Example 74, 4-(6-(N-(1-cyanocyclopropyl)sulfamoyl)-1-(5-(difluoromethyl)-1,3,4-thiadiazol-2-yl)-1H-indazol-4-yl)-N-methylpiperazine-1-carboxamide] | ≤ 0.1 | 1 to 10 | – | –
CNC(=O)C1CCN(c2cc(S(=O)(=O)NC3(C#N)CC3)cc3c2cnn3-c2nnc(C(F)F)s2)C1 (stereo not drawn) [Example 53, [1-(1-[5-(difluoromethyl)(1,3,4-thiadiazol-2-yl)]-6-{[(cyanocyclopropyl)amino]sulfonyl}(1H-indazol-4-yl))pyrrolidin-3-yl]-N-methylcarboxamide] | 0.1 to 0.3 | 10 to 20 | – | –
CN(C)C(=O)C1CCN(c2cc(S(=O)(=O)NC3(C#N)CC3)cc3c2cnn3-c2nnc(C(F)F)s2)C1 (stereo not drawn) [Example 54, [1-(1-[5-(difluoromethyl)(1,3,4-thiadiazol-2-yl)]-6-{[(cyanocyclopropyl)amino]sulfonyl}(1H-indazol-4-yl))pyrrolidin-3-yl]-N,N-dimethylcarboxamide] | 0.1 to 0.3 | 10 to 20 | – | –
CN(C)CCN(C)C(=O)N1CCN(c2cc(S(=O)(=O)NC3(C#N)CC3)cc3c2cnn3-c2nnc(C(F)F)s2)CC1 [Example 76, [4-(1-[5-(difluoromethyl)(1,3,4-thiadiazol-2-yl)]-6-{[(cyanocyclopropyl)amino]sulfonyl}(1H-indazol-4-yl))piperazinyl]-N-[2-(dimethylamino)ethyl]-N-methylcarboxamide] | ≤ 0.1 | 1 to 10 | – | –

More lines, now with the values ahead:

IC50 (PARG [1]) [µM] | IC50 ([2]; 96 h) [µM] | IC50 (PARG [3]) [µM] | IC50 [2] [µM] | Compound
0.3 to 1 | 10 to 20 | – | – | N#CC1(NS(=O)(=O)c2cc(N3CC[C@H]4COC[C@H]4C3)c3cnn(-c4nnc(C(F)F)s4)c3c2)CC1 (relative stereo) [Example 56, 1-[({1-[5-(difluoromethyl)(1,3,4-thiadiazol-2-yl)]-4-(cis-8-oxa-3-azabicyclo-[4.3.0]non-3-yl)-1H-indazol-6-yl}sulfonyl)amino]cyclopropanecarbonitrile]
1 to 10 | 20 to 30 | – | – | N#CC1(NS(=O)(=O)c2cc(-c3ccc4cn[nH]c4c3)c3cnn(-c4nnc(C(F)F)s4)c3c2)CC1 [Example 2, 1-[({4-(1H-indazol-6-yl)-1-[5-(difluoromethyl)(1,3,4-thiadiazol-2-yl)]-1H-indazol-6-yl}sulfonyl)amino]cyclopropanecarbonitrile]
0.3 to 1 | 10 to 20 | – | – | CN1CC2(CCN(c3cc(S(=O)(=O)NC4(C#N)CC4)cc4c3cnn4-c3nnc(C(F)F)s3)CC2)C1 [Example 92, 1-[({1-[5-(difluoromethyl)(1,3,4-thiadiazol-2-yl)]-4-(2-methyl-2,7-diazaspiro-[3.5]non-7-yl)-1H-indazol-6-yl}sulfonyl)amino]cyclopropanecarbonitrile]
0.3 to 1 | 20 to 30 | – | – | CNC(=O)C1CN(c2cc(S(=O)(=O)NC3(C#N)CC3)cc3c2cnn3-c2nnc(C(F)F)s2)C1 [Example 75, 1-(6-(N-(1-cyanocyclopropyl)sulfamoyl)-1-(5-(difluoromethyl)-1,3,4-thiadiazol-2-yl)-1H-indazol-4-yl)-N-methylazetidine-3-carboxamide]
1 to 10 | 20 to 30 | – | – | N#CC1(NS(=O)(=O)c2cc(N3CCC(C(F)F)CC3)c3cnn(-c4nnc(C(F)F)s4)c3c2)CC1 [Example 64, 1-[({1-[5-(difluoromethyl)(1,3,4-thiadiazol-2-yl)]-4-[4-(difluoromethyl)piperidyl]-1H-indazol-6-yl}sulfonyl)amino]cyclopropanecarbonitrile]
0.1 to 0.3 | – | 1 to 10 | – | CN1Cc2cn(-c3cc(S(=O)(=O)NC4(C#N)CC4)cc4c3cnn4-c3nnc(C(F)F)s3)nc2C1 [Example 73, 1-[({1-[5-(difluoromethyl)(1,3,4-thiadiazol-2-yl)]-4-(5-methyl(3-pyrrolino[3,4-c]pyrazol-2-yl))-1H-indazol-6-yl}sulfonyl)amino]cyclopropanecarbonitrile]
≤ 0.1 | 1 to 10 | – | – | N#CC1(NS(=O)(=O)c2cc(N3CCN4C(=O)OC[C@H]4C3)c3cnn(-c4nnc(C(F)F)s4)c3c2)CC1 [Example 61, 1-[({4-((1R)-7-oxo-8-oxa-3,6-diazabicyclo[4.3.0]non-3-yl)-1-[5-(difluoromethyl) (1,3,4-thiadiazol-2-yl)]-1H-indazol-6-yl}sulfonyl)amino]cyclopropanecarbonitrile]
0.3 to 1 | 20 to 30 | – | – | CN(C)C(=O)c1cccc(-c2cc(S(=O)(=O)NC3(C#N)CC3)cc3c2cnn3-c2nnc(C(F)F)s2)c1 [Example 4, [3-(1-[5-(difluoromethyl)(1,3,4-thiadiazol-2-yl)]-6-{[(cyanocyclopropyl)amino]sulfonyl}(1H-indazol-4-yl))phenyl]-N,N-dimethylcarboxamide]
0.3 to 1 | – | – | 10 to 20 | [4-(1-[5-(difluoromethyl)(1,3,4-thiadiazol-2-yl)]-6-{[(cyanocyclopropyl)amino]sulfonyl}(1H-indazol-4-yl))(1,4-diazaperhydroepinyl)]-N-methylcarboxamide [Example 31]
0.3 to 1 | 20 to 30 | – | – | N#CC1(NS(=O)(=O)c2cc(N3CCC4(COC4)C3)c3cnn(-c4nnc(C(F)F)s4)c3c2)CC1 [Example 34, 1-[({1-[5-(difluoromethyl)(1,3,4-thiadiazol-2-yl)]-4-(2-oxa-6-azaspiro[3.4]oct-6-yl)-1H-indazol-6-yl}sulfonyl)amino]cyclopropanecarbonitrile]
